Experimental data: patent publication US7994164B2, “Mineralocorticoid receptor antagonists and methods of use” (Eli Lilly and Company, priority 2007, dated 2011)

Tests used:
[1] = test system: uni-nephrectomized Sprague Dawley rats; experiment: In vivo model of aldosterone mediated renal disease; details: 10 mg/kg/day x 14 days, oral gavage, aldosterone-infused rats; average of n=8
Method: Male uni-nephrectomized Sprague Dawley rats (240-280 g) are housed individually with ad lib house water and rodent 5001 diet for one week. After acclimation, baseline 24 h urine samples are collected and analyzed for total urine protein and creatinine. Animals are randomized via body weight and baseline urine protein into study groups. Baseline serum is taken by tail-clip and analyzed for blood urea nitrogen (BUN), creatinine, and electrolytes. After baseline samples are taken, all rats with the exception of the control group are maintained on a diet containing 6% salt, and drinking water containing 0.3% KCl throughout the study duration. […] Alza mini-pumps to deliver 2.5 μl/h×28 days of d-aldosterone in 0.01% DMSO at 0.75 μg/h, s.c. are implanted in non-control animals (e.g Test Compound group and Vehicle only group) under isoflourane anesthesia. […] Repeat urine samples are collected after 2 and 4 weeks of compound or vehicle alone administration and analyzed for total urine protein and creatinine. At study termination, pharmacokinetic samples are obtained at 8 timepoints (0.5, 1, 2, 3, 6, 8, 12 and 24 h). In addition, hearts and kidneys are removed and fixed in 10% buffered formalin for haematoxylin and eosin (H&E) and Masson's trichrome staining to detect structural damage in cardiac and renal tissues. Serum is taken by cardiac puncture at study termination for additional analysis of serum BUN, creatinine, and electrolytes.

[2] = target: T1, human MR (mineralocorticoid receptor) (Homo sapiens, UniProt P08235); experiment: Steroid hormone nuclear receptor binding assay (MR binding); details: HEK293 lysate overexpressing human MR, [3H]-aldosterone; individual values geometric mean of n=2
T1 construct: expressed in transfected cells; host or cells: HEK293 (lysate, '293-MR lysate')
T1 sequence (P08235 1-984): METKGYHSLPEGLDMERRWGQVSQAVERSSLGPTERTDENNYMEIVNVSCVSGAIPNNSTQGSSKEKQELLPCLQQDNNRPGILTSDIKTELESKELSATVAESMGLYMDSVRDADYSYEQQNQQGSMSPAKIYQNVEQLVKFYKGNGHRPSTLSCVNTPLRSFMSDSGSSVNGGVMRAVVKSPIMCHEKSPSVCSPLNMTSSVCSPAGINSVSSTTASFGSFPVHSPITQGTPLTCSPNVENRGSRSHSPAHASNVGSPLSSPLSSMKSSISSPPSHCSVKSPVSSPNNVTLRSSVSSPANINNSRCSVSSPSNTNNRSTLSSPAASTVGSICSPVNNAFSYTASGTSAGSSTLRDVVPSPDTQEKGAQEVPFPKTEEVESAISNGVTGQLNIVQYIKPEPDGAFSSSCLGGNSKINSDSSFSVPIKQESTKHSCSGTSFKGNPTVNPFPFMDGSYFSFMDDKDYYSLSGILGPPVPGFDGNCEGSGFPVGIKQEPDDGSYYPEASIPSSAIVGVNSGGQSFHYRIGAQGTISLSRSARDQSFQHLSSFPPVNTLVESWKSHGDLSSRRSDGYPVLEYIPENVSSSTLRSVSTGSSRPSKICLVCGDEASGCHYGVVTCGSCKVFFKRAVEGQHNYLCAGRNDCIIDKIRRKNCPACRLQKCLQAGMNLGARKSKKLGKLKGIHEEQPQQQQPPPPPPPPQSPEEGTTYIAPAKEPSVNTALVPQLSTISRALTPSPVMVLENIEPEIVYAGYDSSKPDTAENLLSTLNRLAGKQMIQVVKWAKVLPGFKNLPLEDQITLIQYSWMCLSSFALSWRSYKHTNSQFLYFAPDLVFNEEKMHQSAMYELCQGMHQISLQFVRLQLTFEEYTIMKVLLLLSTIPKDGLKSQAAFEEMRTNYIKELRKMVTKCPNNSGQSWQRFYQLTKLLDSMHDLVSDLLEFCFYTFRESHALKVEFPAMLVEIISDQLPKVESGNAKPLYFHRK
Method: Cell lysates from human embryonic kidney HEK293 cells overexpressing human MR (mineralocorticoid receptor), GR (glucocorticoid receptor), AR (androgen receptor), or PR (progesterone receptor) are used for receptor-ligand competition binding assays to determine Ki values.
Briefly, steroid receptor competition binding assays are run in a buffer containing 20 mM HEPES buffer (pH=7.6), 0.2 mM EDTA, 75 mM NaCl, 1.5 mM MgCl2, 20% glycerol, 20 mM sodium molybdate, 0.2 mM DTT (dithiothreitol), 20 μg/mL aprotinin and 20 μg/mL leupeptin (assay buffer). Typically, steroid receptor binding assays include radio-labeled ligands, such as 0.25 nM [^3H]-aldosterone for MR binding, 0.3 nM [^3H]-dexamethasone for GR binding, 0.36 nM [^3H]-methyltrienolone for AR binding, and 0.29 nM [^3H]-methyltrienolone for PR binding, and either 20 μg 293-MR lysate, 20 μg 293-GR lysate, 22 μg 293-AR lysate, or 40 μg 293-PR lysate per well. Assays are typically run in 96-well format. Competing test compounds are added at various concentrations ranging from about 0.01 nM to 10 μM. […] The binding reactions (140 μL) are incubated overnight at 4° C., then 70 μL of cold charcoal-dextran buffer (containing per 50 mL of assay buffer, 0.75 g of charcoal and 0.25 g of dextran) is added to each reaction. Plates are mixed for 8 minutes on an orbital shaker at 4° C. The plates are then centrifuged at 3,000 rpm at 4° C. for 10 minutes. An aliquot of 120 μL of the binding reaction mixture is then transferred to another 96-well plate and 175 μL of Wallac Optiphase Hisafe 3™ scintillation fluid is added to each well. Plates are sealed and shaken vigorously on an orbital shaker. After an incubation of 2 hours, plates are read in a Wallac Microbeta counter.
The Kd for [^3H]-aldosterone for MR binding, [^3H]-dexamethasone for GR binding, [^3H]-methyltrienolone for AR binding, or [^3H]-methyltrienolone for PR binding, is determined by saturation binding. The IC50 values for compounds are converted to Ki using the Cheng-Prusoff equation.

human MR = target: T2, human MR (Homo sapiens, UniProt P08235); experiment: hMR competitive antagonist assay (luciferase reporter, Schild analysis); assay type: cell-based
T2 construct: expressed in transfected cells; host or cells: HEK293, transient transfection with a CMV-driven plasmid and a GRE-TK-luciferase reporter
T2 sequence (P08235 1-984): T1 sequence (P08235 1-984)
Source text: Human embryonic kidney HEK293 cells are transfected with steroid hormone receptor and reporter gene plasmids using a suitable transfection reagent such as Fugene™. Briefly, the reporter plasmid containing two copies of probasin ARE and TK (thymidine kinase) promoter upstream of the luciferase reporter cDNA, is transfected into HEK293 cells with a plasmid constitutively expressing human androgen receptor (AR) using viral CMV (cytomegalovirus) promoter. The reporter plasmid containing two copies of GRE and TK promoter upstream of the luciferase reporter cDNA is transfected with a plasmid constitutively expressing either human glucocorticoid receptor (GR), human mineralocorticoid receptor (MR), or human progesterone receptor (PR) using viral CMV promoter. Cells are transfected in T150 cm flasks in DMEM media with 5% charcoal-stripped Fetal Bovine Serum (FBS). After an overnight incubation, transfected cells are trypsinized, plated in 96 well dishes in DMEM media containing 5% charcoal-stripped FBS, incubated for 4 hours and then exposed to various concentrations of test compounds ranging from about 0.01 nM to 10 μM. […] After 24 hours incubation with test compounds, cells are lysed and luciferase activity is determined using standard techniques.
Human embryonic kidney HEK293 cells are transfected with human MR using the same transfection reagents, plasmids, promoters, reporter constructs, buffers, and procedures as described above for the Nuclear Hormone Receptor Panel Screen.

Structure (SMILES)	reduced urinary protein excretion compared to vehicle treated animals [1]	Ki [2] [nM]	Kb (human MR) [nM]
C[C@H](CN1CCOCC1)n1/c(=N/C#N)[nH]c2cc(/C=C3\c4ccc(F)cc4COc4cc(F)ccc43)ccc21 [Example 1, (E)-N—((R)-5-((E)-3,8-Difluoro-6H-dibenzo[b,e]oxepin-11-ylidenemethyl)-1-(1-methyl-2-morpholin-4-yl-ethyl)-1,3-dihydro-benzoimidazol-2-ylidene)-cyanamide]	about 49 mg/day	~0.79	~1.2
CN1CCN(n2/c(=N/C#N)[nH]c3cc(/C=C4\c5ccccc5COc5cc(F)ccc54)ccc32)CC1 [Example 8, (E)-N-(5-((E)-3-Fluoro-6H-dibenzo[b,e]oxepin-11-ylidenemethyl)-1-(4-methyl-piperazin-1-yl)-1,3-dihydro-benzoimidazol-2-ylidene)-cyanamide]	~83 mg/day	~0.08	~1.1
N#C/N=c1\[nH]c2cc(/C=C3/c4ccc(F)cc4OCc4c(F)cccc43)ccc2n1[C@H]1C[C@@H]2COCCN2C1 [Example 23, (E)-N-(5-((E)-3,7-Difluoro-6H-dibenzo[b,e]oxepin-11-ylidenemethyl)-1-((7S, 8aR)-hexahydro-pyrrolo[2,1-c][1,4]oxazin-7-yl)-1,3-dihydro-benzoimidazol-2-ylidene)-cyanamide]	~64 mg/day	~0.23	~2.5
